Where two headings read alike, the source gives them in different places.
Key:
[1] = target: human recombinant CB1R (Homo sapiens, UniProt P21554); test: biochemical; format: binding
[2] = target: human recombinant CB2R (Homo sapiens, UniProt P34972); test: Competitive radioligand binding assay, displacement of [^3H]CP 55,940; details: for Hill Slope: CB2R, means ± S.E.M. of four to ten experiments
[3] = system: microglia; set-up: method as in PMID 38477310; details: microglia following lipopolysaccharide challenge; cited from earlier work
[4] = set-up: method as in PMID 37574147; details: human hepatic biotransformation; cited from earlier work
[5] = set-up: method as in PMID 1806943; details: hamster-derived liver microsomes; cited from earlier work
[6] = set-up: method as in PMID 1806943; details: cat-derived liver microsomes; cited from earlier work
[7] = set-up: method as in PMID 1806943; details: gerbil-derived liver microsomes; cited from earlier work
[8] = Incubation of CBC with pooled human liver microsomes, metabolite identification; format: in vitro ADME
Procedure: To maximize the yield of CBC metabolites, parameters including incubation time, HLM protein concentration, and CBC concentration were optimized, and representative extracted ion chromatograms are available in the Supplementary Materials (Section S1.2). The parameters resulting in the highest yield of metabolites were determined to be 0.5 mg/mL HLM, 50 µg/mL CBC, and a 40 min incubation time. Prior to adding the drug, the NADPH-generating system was incubated on a shaker set to 150 rpm at a temperature of 37 ± 2 °C for 10 min (C24 Incubator Shaker, New Brunswick Scientific, Edison, NJ, USA). […]
The HPLC components for the semi-preparative isolation of the major CBC metabolite were as follows: G1322A degasser, G1312A binary pump, G1329B 1260 ALS, G1315B DAD, G1364B fraction collector (all Agilent Technologies, Santa Clara, CA, USA), and an external column compartment ThermaSphere (Phenomenex, Torrance, CA, USA). […] UV absorbance was monitored at 210 nm and 231 nm. […] Isolated metabolites and controls were analyzed utilizing both LC-MS/MS and GC-MS/MS as described below. […]
Samples were derivatized and analyzed using GC-MS/MS based on the previous literature. […] Samples were cooled, transferred to autosampler vials and immediately analyzed via GC-MS/MS. […]

Chain of human recombinant CB2R (P34972 whole entry): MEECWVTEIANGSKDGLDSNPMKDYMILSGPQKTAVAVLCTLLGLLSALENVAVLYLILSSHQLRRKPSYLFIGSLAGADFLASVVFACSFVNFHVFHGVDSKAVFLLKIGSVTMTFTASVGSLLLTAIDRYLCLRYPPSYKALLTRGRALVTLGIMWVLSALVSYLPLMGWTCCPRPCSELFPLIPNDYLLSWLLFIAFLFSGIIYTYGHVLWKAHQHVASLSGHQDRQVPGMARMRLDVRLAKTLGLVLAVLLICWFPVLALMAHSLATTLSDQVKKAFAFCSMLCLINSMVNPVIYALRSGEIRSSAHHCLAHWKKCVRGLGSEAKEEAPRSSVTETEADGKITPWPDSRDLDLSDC
Chain of human recombinant CB1R (P21554 whole entry): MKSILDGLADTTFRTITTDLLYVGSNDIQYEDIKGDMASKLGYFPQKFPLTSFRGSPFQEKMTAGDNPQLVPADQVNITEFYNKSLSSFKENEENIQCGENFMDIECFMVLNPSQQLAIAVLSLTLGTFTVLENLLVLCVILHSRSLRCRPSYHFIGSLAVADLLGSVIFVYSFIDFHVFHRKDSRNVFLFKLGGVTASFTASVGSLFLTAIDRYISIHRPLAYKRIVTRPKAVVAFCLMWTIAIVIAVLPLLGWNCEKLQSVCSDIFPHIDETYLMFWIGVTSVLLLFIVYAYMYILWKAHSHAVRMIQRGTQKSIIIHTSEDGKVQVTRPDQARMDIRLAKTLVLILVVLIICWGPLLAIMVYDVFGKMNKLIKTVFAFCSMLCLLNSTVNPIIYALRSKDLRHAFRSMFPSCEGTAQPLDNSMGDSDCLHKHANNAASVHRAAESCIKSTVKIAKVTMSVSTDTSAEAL

CCCCCc1cc2c3c(c1)OC1(C)CCC(C3C1O)C(C)(C)O2 (stereo not drawn) [2′-hydroxycannabicitran]
Ki [1]: > 10 µM | Ki [2]: > 10 µM

CCCCCc1cc(O)c2c(c1)OC(C)(CCC(O)C(C)(C)O)C=C2 (stereo not drawn) [6′, 7′-dihydroxy-CBC]
Inflammatory phenotype by nitric oxide production [3]: reduction in nitric oxide production

CCCCCc1cc(O)c2c(c1)OC(C)(CC/C=C(\C)CO)C=C2 (stereo not drawn) [8′-hydroxy-CBC]
Inflammatory phenotype by nitric oxide production [3]: pro-inflammatory

CCCCCc1cc(O)c2c(c1)OC(C)(CCC=C(C)C)C=C2 (stereo not drawn) [CBC, Cannabichromene]
Ki [1]: 3.5 ± 1.2 µM | Hill Slope ([1]; CB1R, means ± S.E.M. of four to ten experiments): −0.27 ± 0.51 | Hydroxylation, share of all CBC metabolites produced [4]: 31% | Monoglucuronides, share of all CBC metabolites produced [4]: ~50% | Epoxidation across the alkene on the branched aliphatic chain, share of the total amount of metabolites generated [5]: 10% | Epoxidation across the alkene on the branched aliphatic chain, share of the total amount of metabolites generated [6]: 42% | Ki [2]: 0.301 ± 0.072 µM | Hill Slope [2]: −1.32 ± 0.36 | Epoxidation across the alkene on the branched aliphatic chain, share of the total amount of metabolites generated [7]: 12% | Major metabolite generated by HLMs ([8]; 0.5 mg/mL HLM, 50 µg/mL CBC, 40 min incubation, NADPH-generating system): 2′-hydroxycannabicitran | Formation of carboxylic acid metabolites ([8]; incubation with HLM, optimized conditions): did not observe any carboxylic acid metabolites

CCCCCc1cc2c3c(c1)OC(C)(C)C1CCC(C)(CC31)O2 (stereo not drawn) [CBT-C, cannabicitran, reference compound]
Ki [1]: > 10 µM | Ki [2]: 4.2 ± 0.41 µM | Hill Slope [2]: −1.15 ± 0.14

— publication PMC11206029, “Identification and Characterization of Cannabichromene’s Major Metabolite Following Incubation with Human Liver Microsomes” (Metabolites, 2024)
